Test results: US20150209379A1, “TREATMENT OF PROSTATE CANCER AND HEMATOLOGIC NEOPLASMS” (THOMAS JEFFERSON UNIVERSITY, priority 2012, published 2015)

Target: T1, Stat5a (Homo sapiens, UniProt P42229)
T1 sequence (P42229 1-794): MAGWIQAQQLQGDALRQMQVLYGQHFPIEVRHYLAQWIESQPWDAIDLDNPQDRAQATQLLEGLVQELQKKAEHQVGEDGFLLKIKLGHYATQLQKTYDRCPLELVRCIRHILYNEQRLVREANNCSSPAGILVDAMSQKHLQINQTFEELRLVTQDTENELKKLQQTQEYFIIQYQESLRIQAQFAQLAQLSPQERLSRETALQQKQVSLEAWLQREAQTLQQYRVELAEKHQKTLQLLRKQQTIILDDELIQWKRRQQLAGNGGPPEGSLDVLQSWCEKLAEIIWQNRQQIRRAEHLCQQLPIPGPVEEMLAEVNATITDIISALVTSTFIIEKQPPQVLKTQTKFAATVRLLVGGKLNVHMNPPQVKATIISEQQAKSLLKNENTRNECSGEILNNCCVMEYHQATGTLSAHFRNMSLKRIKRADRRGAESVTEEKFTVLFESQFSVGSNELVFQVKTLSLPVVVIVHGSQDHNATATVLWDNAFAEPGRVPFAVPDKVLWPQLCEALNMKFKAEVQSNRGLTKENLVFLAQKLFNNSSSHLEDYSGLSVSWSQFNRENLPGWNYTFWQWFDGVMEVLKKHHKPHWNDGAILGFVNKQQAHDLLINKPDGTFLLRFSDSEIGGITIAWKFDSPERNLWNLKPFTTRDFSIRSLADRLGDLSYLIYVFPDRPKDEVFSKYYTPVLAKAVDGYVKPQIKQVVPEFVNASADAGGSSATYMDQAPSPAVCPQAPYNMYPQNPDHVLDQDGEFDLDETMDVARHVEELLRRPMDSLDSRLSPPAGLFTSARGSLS
Assay: Prolactin-induced Stat5a phosphorylation in CWR22Rv1 prostate cells (immunoprecipitation/Western blot)
Type: cell-based
Settings: CWR22Rv1, 12, 25, 50 and 100 μM for 2 h, then 10 nM Prl 30 minutes
Procedure: CWR22Rv1 cells were starved for 24 h in serum-free medium, treated with Compound 2 at 12, 25, 50 and 100 μM concentrations for 2 h, followed by stimulation with 10 nM Prl for 30 minutes. Stat5a was immunoprecipitated with anti-Stat5a pAb (4 gg/ml, Millipore, Billerica, Mass.). Immunoprecipitates of CWR22Rv1 cells were blotted with anti-phospho-Stat5ab mAb (1 μg/ml, Advantex BioReagents, Conroe, Tex.) or anti-Stat5a/b mAb (BD Biosciences, San Jose, Calif.). Whole cell lysates were immunoblotted with anti-actin pAb for loading control.
The protocol in more detail comprised the following. Cell pellets were solubilized in lysis buffer [10 mM Tris-HCl (pH 7.6), 5 mM EDTA, 50 mM sodium chloride, 30 mM sodium pyrophosphate, 50 mM sodium fluoride, 1 mM sodium orthovanadate, 1% Triton X-100, 1 mM phenylmethylsulfonyl fluoride, 5 μg/ml aprotinin, 1 μg/ml pepstatin A, and 2 μg/ml leupeptin], rotated end-over-end at 4° C. for 60 min, and insoluble material was pelleted at 12,000×g for 30 min at 4° C. The protein concentrations of clarified cell lysates were determined by simplified Bradford method (Bio-Rad Laboratories, Hercules, Calif.). Stat5a was immunoprecipitated from whole cell lysates with anti-Stat5a (4 μl/ml; Millipore, Billerica, Mass.) pAb. Antibody was captured by incubation for 60 min with protein A-Sepharose beads (Amersham Pharmacia Biotech, Piscataway, N.J.). […]

## OC[C@H]1O[C@@H](n2cnc3c(NNc4ccccc4)ncnc32)[C@H](O)[C@@H]1O [Compound 2, (2R,3S,4R,5R)-2-(hydroxymethyl)-5-(6-(2-phenylhydrazinyl)-9H-purin-9-yl)tetrahydrofuran-3,4-diol]
  effect on Stat5a phosphorylation: inhibits Stat5a phosphorylation
